Reference: patent US20260242390A1, “TOTAL SYNTHESES OF PORTIMINE A AND ANALOGUES THEREOF AS SMALL MOLECULE MODULATORS OF NMD3” (priority 2023, published 2026)

Legend:
LN229 = experiment: Broad cell line profiling, LN229; format: cell-based; details: Homo sapiens, LN-229; LN229, Glioblastoma; read-out: PA IC50
Source text: (§1) • A panel of human and mouse cancer cell types used to assess the breadth of PA activity, including multiple therapy resistant metastatic mesenchymal tumor cell lines and primary glioblastoma patient-derived metastatic stem/tumor initiating cell populations.

HT-1080 = experiment: Broad cell line profiling, HT-1080; format: cell-based; details: HT-1080, Human Fibrosarcoma; read-out: PA IC50
Source text: as §1

SUM159 = experiment: Broad cell line profiling, SUM159; format: cell-based; details: Homo sapiens; SUM159, Breast Adenocarcinoma; read-out: PA IC50
Source text: as §1

U87EGFRvIII = experiment: Broad cell line profiling, U87EGFRvIII; format: cell-based; details: Homo sapiens, EGFRvIII Expressing Glioblastoma, read-out: PA IC50
Source text: as §1

p53 = p53 protein level in Jurkat cells; format: cell-based, human
Experimental: FIG. 7. Portimine A targets NMD3 and prevents polysome formation. […] (A) Immunoblot showing reduced NMD3 levels in shNMD3 Jurkat and HeLa cells. […] Jurkat cells were treated with 12.5 nM of PA for 12 or 24 hours. Jurkat and HeLa cells were treated with 5 nM or 150 nM of PA for 24 hours. Data represents mean±SD of biologically replicated experiments (n=3). […] Cell lysates were fractionated by sucrose gradient (5-50%) and each fraction were analyzed by western blot. eIF6 levels increase in 60S subunit fraction and decrease in ribosome-free fractions after PA treatment. RPS6, a 40S and polysome subunits marker, is decreased in polysome fractions after PA treatment. Results are representative of three independent experiments. […] Relative protein levels in each fraction were normalized to the peak fraction of the indicated protein from the DMSO cells and plotted. Data represents mean±SD of biologically replicated experiments (n=3). Statistical analysis was performed using multiple unpaired Student t-test. * p≤0.05; ** p≤0.01; *** p≤0.005; **** p≤0.0001. Treatment condition: Jurkat (5 M per condition); Incubate cells (1 M/mL) with inhibitors for 6 hr, 12 hr and 24 hr, respectively.
• 1) Portimine A and its functional analogs show stereo-selective acute toxicity in cancer cells (FIG. 1). […] (B) Structure of portimine related analogs: phenyl-portimine A (Ph-PA, 36) and epi-portimine A (ePA, 38). […]

HCC1806 = experiment: Broad cell line profiling, HCC1806; format: cell-based; details: Homo sapiens; HCC1806, Acantholytic Squamous Carcinoma; read-out: PA IC50
Source text: as §1

Jurkat [1] = experiment: Washout experiment, Cell Titerglo cell viability; format: cell-based, human; details: for IC50: Homo sapiens, Jurkat 50 k per well
Jurkat [2] = experiment: Broad cell line profiling, Jurkat; format: cell-based; details: Human Leukemia, read-out: PA IC50
Source text: as §1

`C=CC1=C[C@@H]2[C@@H]3O[C@]4(CC[C@H](O4)C(C)C[C@@H](O)C3=O)CC(O)C3=NCC[C@@]32CC1` (some centres unmarked) [PA, portimine A] showed an IC50 (LN229) of 1.1 nM, an IC50 (HT-1080) of 0.83 nM and an IC50 (SUM159) of 1.9 nM. For the same compound, the IC50 (U87EGFRvIII) was 3.4 nM, the p53 level (p53) was “downregulated” and the IC50 (HCC1806) was 0.72 nM. For the same compound, the IC50 (Jurkat [1]; read-out: IC50 after 30 min exposure, washout at 30 min, total 36 hours) was roughly 5 nM, the IC50 (Jurkat [1]; washout at 4 hr, total 36 hours, read-out: IC50 after 4 hr exposure) was roughly 2 nM and the “exposure resulting in minimal loss of potency” value (Jurkat [1]; compound washout, cell-based target engagement) was less than 1 h. For the same compound, the “decrease in IC50 on removing compound after 30 min” value (Jurkat [1]; washout after 30 min, total 36 hours) was ~ 5 fold and the IC50 (Jurkat [2]) was 0.56 nM.
